Data on 37 compounds can be found in patent publication US10940139B2, “Compounds that interact with the Ras superfamily for the treatment of cancers, inflammatory diseases, rasopathies, and fibrotic disease” (Shy Therapeutics LLC, priority 2017, dated 2021).

The term inhibition denotes the percentage by which the read-out fell short of the control.

What all share (assay): Ras GTP binding domain inhibition assay (labeled GTP)
In experiment [1] the target is KRas G12D mutant protein (Homo sapiens (Human), UniProt P01116, G12D). Conditions: 20 μM compound; KRas G12D; read-out: % Inhibition at 20 μM of K-Ras mutant and wild-type protein, KRas G12D.
Experiment [2] has as its target KRas G12C mutant (Homo sapiens (Human), UniProt P01116, G12C). To be noted: 20 μM compound; KRas G12C; read-out: % Inhibition at 20 μM of K-Ras mutant and wild-type protein, KRas G12C. In outline:
(§1)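 Inhibition of labeled GTP binding is measured on immobilized His-KRas protein in Tris buffer pH 7.5 with 1 mM MgCl2 and 1 mM DTT.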

The target of experiment [3] is KRas wild type (Homo sapiens (Human), UniProt P01116). Conditions: 20 μM compound; KRas wild type; read-out: % Inhibition at 20 μM of K-Ras mutant and wild-type protein, KRas wild type. The procedure, abridged:
as §1

Experiment [4] concerns the target KRas G12C/Q61H double mutant (Homo sapiens (Human), UniProt P01116, G12C/Q61H). Conditions: 20 μM compound. The procedure, abridged:
as §1

The target in experiment [5] is KRas G12D/Q61H double mutant (Homo sapiens (Human), UniProt P01116, G12D/Q61H). Conditions: 20 μM compound. The procedure, abridged:
as §1

For experiment [6], the target named is KRas Q61H mutant (Homo sapiens (Human), UniProt P01116, Q61H). To be noted: 20 μM compound. In outline:
as §1

Setting [7] is: read-out: % Inhibition at 20 μM KRas G12C Q61H.
The mark [8] stands for this setting: read-out: % Inhibition at 20 μM KRas G12D Q61H.
[9] abbreviates: read-out: % Inhibition at 20 μM KRas Q61H.
Setting [10] is: KRas G12C/Q61H double mutant, read-out: % Inhibition at 20 μM of K-Ras mutant and wild-type protein, KRas G12C Q61H.
Setting [11] is: KRas G12D/Q61H double mutant, read-out: % Inhibition at 20 μM of K-Ras mutant and wild-type protein, KRas G12D Q61H.
[12] abbreviates: KRas Q61H, read-out: % Inhibition at 20 μM of K-Ras mutant and wild-type protein, KRas Q61H.

Where two headings read alike, the source gives them in different places.

KRas G12C mutant, sequence (P01116-2 other isoform, or with tags, fused parts or gaps G12C): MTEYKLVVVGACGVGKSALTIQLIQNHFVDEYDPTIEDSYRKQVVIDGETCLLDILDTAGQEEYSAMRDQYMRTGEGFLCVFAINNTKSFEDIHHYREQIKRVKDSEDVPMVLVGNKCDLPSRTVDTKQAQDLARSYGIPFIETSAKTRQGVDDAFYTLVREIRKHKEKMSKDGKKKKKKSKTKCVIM
KRas wild type, sequence (P01116-2 other isoform, or with tags, fused parts or gaps): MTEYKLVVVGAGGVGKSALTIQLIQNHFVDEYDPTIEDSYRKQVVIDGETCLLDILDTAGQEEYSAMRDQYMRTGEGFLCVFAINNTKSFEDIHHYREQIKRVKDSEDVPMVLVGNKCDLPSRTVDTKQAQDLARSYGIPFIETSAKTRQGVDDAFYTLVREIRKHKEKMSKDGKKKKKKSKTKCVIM
KRas Q61H mutant, sequence (P01116-2 other isoform, or with tags, fused parts or gaps Q61H): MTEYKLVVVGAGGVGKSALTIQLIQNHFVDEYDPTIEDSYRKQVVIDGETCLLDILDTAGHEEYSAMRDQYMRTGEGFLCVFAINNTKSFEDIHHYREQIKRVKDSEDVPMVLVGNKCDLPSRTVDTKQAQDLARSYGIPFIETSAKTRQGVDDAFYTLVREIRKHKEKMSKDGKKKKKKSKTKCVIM
KRas G12D/Q61H double mutant, sequence (P01116-2 other isoform, or with tags, fused parts or gaps G12D/Q61H): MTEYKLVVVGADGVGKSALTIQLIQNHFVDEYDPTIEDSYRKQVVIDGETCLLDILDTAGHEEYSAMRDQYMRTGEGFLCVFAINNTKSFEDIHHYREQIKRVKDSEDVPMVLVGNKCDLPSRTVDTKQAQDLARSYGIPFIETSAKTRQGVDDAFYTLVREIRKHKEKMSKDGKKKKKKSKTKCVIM
KRas G12C/Q61H double mutant, sequence (P01116-2 other isoform, or with tags, fused parts or gaps G12C/Q61H): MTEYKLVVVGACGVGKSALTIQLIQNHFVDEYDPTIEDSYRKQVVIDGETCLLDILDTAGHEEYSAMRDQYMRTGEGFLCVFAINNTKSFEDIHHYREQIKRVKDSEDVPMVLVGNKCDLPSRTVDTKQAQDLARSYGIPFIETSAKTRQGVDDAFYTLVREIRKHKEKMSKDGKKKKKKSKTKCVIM
KRas G12D mutant protein, sequence (P01116-2 other isoform, or with tags, fused parts or gaps G12D): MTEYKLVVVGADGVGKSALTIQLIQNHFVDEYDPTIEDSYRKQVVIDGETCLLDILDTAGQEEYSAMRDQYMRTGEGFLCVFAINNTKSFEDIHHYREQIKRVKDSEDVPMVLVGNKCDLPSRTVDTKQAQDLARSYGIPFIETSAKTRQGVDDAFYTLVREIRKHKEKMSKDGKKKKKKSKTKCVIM

Regarding `CC(CO)Nc1nc(-c2nccn2C)nc2sc(-c3ccccc3)c(-c3ccccc3)c12` (stereo not drawn) [drawing 3578], the values for the inhibition at 20 µM in experiment [1], in experiment [2] and in experiment [3] were 1 to 25%, 25 to 50% and 0%, respectively.
The corresponding values for `COCCNc1nc(-c2nccn2C)nc2sc(-c3cccc(OC)c3)c(-c3ccccc3)c12` [drawing 3586] are 25 to 50%, 1 to 25% and 25 to 50%.
The corresponding values for `CCN(CC)CCOc1nc(-c2nccn2C)nc2sc(-c3ccccc3)c(-c3ccccc3)c12` [drawing 3573] are 25 to 50%, 25 to 50% and 51 to 75%.
With `Cc1sc2c(O)nc(-c3nccn3C)nc2c1-c1ccccc1` [drawing 3594], the inhibition at 20 µM in experiment [1], in experiment [2] and in experiment [3] was 25 to 50% each time.
Turning to `COC(C)(C)c1ccc(-c2csc3c(O)nc(-c4nccn4C)nc23)cc1` [drawing 3618], the inhibition at 20 µM in experiment [1] is 25 to 50%; in experiment [2], 0%; in experiment [3], 25 to 50%.
As for `COCCNc1nc(-c2nccn2C)nc2sc(C3CCOCC3)c(-c3ccccc3)c12` [drawing 3590], the inhibition at 20 µM in experiment [1] is 51 to 75%; in experiment [2], 25 to 50%; in experiment [3] it was 51 to 75%.
Regarding `Cn1ccnc1-c1nc(O)c2scc(-c3ccccc3Cl)c2n1` [drawing 3615], the inhibition at 20 µM in experiment [1], in experiment [2] and in experiment [3] was 25 to 50% each time.
Regarding `CC(O)CNc1nc(-c2nccn2C)nc2sc(-c3ccccc3)c(-c3ccccc3)c12` (stereo not drawn) [drawing 3569], the inhibition at 20 µM in experiment [1], in experiment [2] and in experiment [3] was 1 to 25% throughout.
`Cn1ccnc1-c1nc(O)c2scc(-c3ccc(C(C)(C)C)cc3)c2n1` [drawing 3619]: the inhibition at 20 µM in experiment [1] was 1 to 25%; in experiment [2], 25 to 50%; in experiment [3], 1 to 25%.
Regarding `Cn1ccnc1-c1nc(NCCOC(F)(F)F)c2c(-c3ccccc3)c(-c3ccccc3)sc2n1` [drawing 3568], the values for the inhibition at 20 µM in experiment [1], in experiment [2] and in experiment [3] were 25 to 50%, 1 to 25% and 25 to 50%, respectively.
Regarding `Cc1sc2c(O)nc(-c3nccn3C)nc2c1-c1cccc(C(F)(F)F)c1` [drawing 3599], the inhibition at 20 µM in experiment [1], in experiment [2] and in experiment [3] was 1 to 25% throughout.
Regarding `CC(C)COc1ccc(-c2csc3c(O)nc(-c4nccn4C)nc23)cn1` [drawing 3612], the values for the inhibition at 20 µM in experiment [1], in experiment [2] and in experiment [3] were 76 to 100%, 25 to 50% and 25 to 50%, respectively.
On to `CC(C)COc1ccc(-c2csc3c(O)nc(-c4cn(C)cn4)nc23)cn1` [drawing 3605], for which the values for the inhibition at 20 µM in experiment [1], in experiment [2] and in experiment [3] were 1 to 25%, 25 to 50% and 25 to 50%, respectively.
As for `Cn1ccnc1-c1nc(O)c2scc(-c3cccc(C(F)(F)F)c3)c2n1` [drawing 3598], the inhibition at 20 µM in experiment [1] was in the range of 25 to 50%; in experiment [2], 1 to 25%; in experiment [3] it was 25 to 50%.
For the compound `CC(C)Oc1ccc(-c2csc3c(O)nc(-c4nccn4C)nc23)cc1F` [drawing 3609], the inhibition at 20 µM in experiment [1], in experiment [2] and in experiment [3] was 25 to 50% throughout.
As for `CC(C)OCCNc1nc(-c2nccn2C)nc2sc(-c3ccccc3)c(-c3ccccc3)c12` [drawing 3567], the inhibition at 20 µM in experiment [1], in experiment [2] and in experiment [3] was 51 to 75% each time.
As for `Cn1ccnc1-c1nc(O)c2scc(-c3cccc(OC(F)(F)F)c3)c2n1` [drawing 3603], the inhibition at 20 µM in experiment [1] was 51 to 75%; in experiment [2] it was 1 to 25%; in experiment [3], 25 to 50%.
The corresponding values for `CC(C)COc1ccc(-c2c(-c3ccccc3)sc3c(O)nc(-c4nccn4C)nc23)cn1` [drawing 3587] are 51 to 75%, 25 to 50% and 51 to 75%.
With `CC(C)Oc1ccc(-c2c(-c3ccccc3)sc3c(O)nc(-c4nccn4C)nc23)cc1F` [drawing 3611], the inhibition at 20 µM in experiment [1] was in the range of 25 to 50%; in experiment [2], 1 to 25%; in experiment [3], 25 to 50%.
Regarding `Cn1ccnc1-c1nc(O)c2sc(-c3ccccc3)c(-c3ccccc3Cl)c2n1` [drawing 3595], the results for the inhibition at 20 µM in experiment [1], in experiment [2] and in experiment [3] were 51 to 75%, 51 to 75% and 25 to 50%, respectively.
As for `COCCNc1nc(-c2ccccn2)nc2sc(-c3ccccc3)c(-c3ccccn3)c12` [drawing 3620], the inhibition at 20 µM in experiment [1] is 1 to 25%; in experiment [2], 1 to 25%; in experiment [3], 0%.
For the compound `COc1ccc(C2CN(C(=O)c3csc4c(O)nc(-c5ccccn5)nc34)CCO2)cc1` (stereo not drawn) [drawing 2768], the inhibition at 20 µM in experiment [4] (setting [7]), in experiment [5] (setting [8]) and in experiment [6] (setting [9]) was 25 to 50% throughout.
Regarding `Oc1nc(-c2ccccn2)nc2c(-c3ccnn3-c3ccccn3)csc12` [drawing 2904], the inhibition at 20 µM in experiment [4] (setting [7]) is 25 to 50%; in experiment [5] (setting [8]) it was 1 to 25%; in experiment [6] (setting [9]), 25 to 50%.
`O=C(c1csc2c(O)nc(-c3ccccn3)nc12)N1CCN(Cc2ccc(O)cc2)CC1` [drawing 2764]: the inhibition at 20 µM in experiment [4] (setting [7]) lay in the range of 25 to 50%; in experiment [5] (setting [8]), 1 to 25%; in experiment [6] (setting [9]) it was 25 to 50%.
On to `O=C(c1csc2c(O)nc(-c3ccccn3)nc12)N1CCNC(c2ccccc2F)C1` (stereo not drawn) [drawing 2776], for which the inhibition at 20 µM was in the range of 51 to 75% in experiment [4] (setting [7]), 25 to 50% in experiment [5] (setting [8]) and 76 to 100% in experiment [6] (setting [9]).
Take `Cc1sc2c(N)nc(-c3ccccn3)nc2c1-c1ccccc1` [drawing 2837]: the results for the inhibition at 20 µM in experiment [4] (setting [7]), in experiment [5] (setting [8]) and in experiment [6] (setting [9]) were 1 to 25%, 25 to 50% and 1 to 25%, respectively.
As for `O=C(c1csc2c(O)nc(-c3ccccn3)nc12)N1CCNC(c2ccc(F)cc2)C1` (stereo not drawn) [drawing 2807], the inhibition at 20 µM in experiment [4] (setting [7]) was 76 to 100%; in experiment [5] (setting [8]) it was 1 to 25%; in experiment [6] (setting [9]), 76 to 100%.
Turning to `CC(C(=O)Nc1ccnc(-c2ccccn2)n1)c1ccc(C#N)cc1` (stereo not drawn) [drawing 2794], the inhibition at 20 µM in experiment [4] (setting [7]) lay in the range of 51 to 75%; in experiment [5] (setting [8]) it was 1 to 25%; in experiment [6] (setting [9]) it was 51 to 75%.
In the case of `N#Cc1ccc(CCNC(=O)c2csc3nc(-c4ccccn4)nc(N4CCOCC4)c23)cc1` [drawing 2750], the inhibition at 20 µM in experiment [4] (setting [7]), in experiment [5] (setting [8]) and in experiment [6] (setting [9]) was 1 to 25% each time.
As to `N#Cc1cccc(CCNC(=O)c2csc3nc(-c4ccccn4)nc(N4CCOCC4)c23)c1` [drawing 2787], the figures for the inhibition at 20 µM in experiment [4] (setting [7]), in experiment [5] (setting [8]) and in experiment [6] (setting [9]) were 25 to 50%, 1 to 25% and 25 to 50%, respectively.
With `COc1ccc(C2CN(C(=O)c3csc4c(O)nc(-c5ccccn5)nc34)CCN2)cc1` (stereo not drawn) [drawing 2774], the inhibition at 20 µM in experiment [4] (setting [7]) lay within 76 to 100%; in experiment [5] (setting [8]), 1 to 25%; in experiment [6] (setting [9]), 76 to 100%.
For `COc1ccc(CCNC(=O)c2csc3nc(-c4ccccn4)nc(N4CCOCC4)c23)cn1` [drawing 2745], the inhibition at 20 µM is 25 to 50% in experiment [4] (setting [7]), 25 to 50% in experiment [5] (setting [8]) and 51 to 75% in experiment [6] (setting [9]).
`O=C(c1csc2c(O)nc(-c3ccccn3)nc12)N1CCN(c2ccc(F)cc2)CC1` [drawing 2754]: the inhibition at 20 µM in experiment [4] (setting [7]) was 25 to 50%; in experiment [5] (setting [8]), 0%; in experiment [6] (setting [9]) it was 25 to 50%.
On to `COCCNc1nc(-c2ccccn2)nc(-c2cccc(OCCN(C)C)c2)c1Oc1ccccc1` [drawing 3529], for which the inhibition at 20 µM in experiment [4] (setting [10]), in experiment [5] (setting [11]) and in experiment [6] (setting [12]) was 1 to 25% each time.
In the case of `O=C(NCCc1cccnc1)c1csc2nc(-c3ccccn3)nc(N3CCOCC3)c12` [drawing 2744], the inhibition at 20 µM lay within 25 to 50% in experiment [4] (setting [7]), 1 to 25% in experiment [5] (setting [8]) and 51 to 75% in experiment [6] (setting [9]).
The corresponding values for `CC(C(=O)Nc1nc(-c2ccccn2)nc2sccc12)c1ccc(C#N)cc1` (stereo not drawn) [drawing 2798] are 76 to 100%, 1 to 25% and 76 to 100%.
For the compound `Cc1c(Br)sc2c(O)nc(-c3ccccn3)nc12` [drawing 3474], the inhibition at 20 µM in experiment [4] (setting [10]) was 25 to 50%; in experiment [5] (setting [11]), 25 to 50%; in experiment [6] (setting [12]) it was 51 to 75%.
